Values joined by “and” are separate entries in the source; they are usually repeats but may differ in a detail not shown here. Equal entries are not always repeated.
Tests used:
Assay type in all cases: toxicity, cell-based
HEK-293T = assay: Incucyte cell viability with HEK293T; settings: human, 10 µM, compound concentration 10 uM
Fibroblast = assay: Incucyte cell viability with human fibroblast; settings: 10 µM, compound concentration 10 uM
U2OS = assay: Incucyte cell viability with U2OS; settings: human, 10 µM, compound concentration 10 uM
Note: unitless GR value; below 1 slowed growth and below 0 cell loss.

SMILES | Growth Rate (HEK-293T; 0 h, replicate number 2) | Growth Rate (HEK-293T; 6 h, replicate number 1) | Growth Rate (HEK-293T; 6 h, replicate number 2) | Growth Rate (HEK-293T; 12 h, replicate number 1) | Growth Rate (HEK-293T; 12 h, replicate number 2) | Growth Rate (HEK-293T; 18 h, replicate number 1) | Growth Rate (HEK-293T; 18 h, replicate number 2) | Growth Rate (HEK-293T; 24 h, replicate number 1) | Growth Rate (Fibroblast; 6 h, replicate number 2) | Growth Rate (Fibroblast; 12 h, replicate number 1) | Growth Rate (Fibroblast; 18 h, replicate number 1) | Growth Rate (Fibroblast; 18 h, replicate number 2) | Growth Rate (Fibroblast; 24 h, replicate number 1) | Growth Rate (Fibroblast; 24 h, replicate number 2) | Growth Rate (U2OS; 6 h, replicate number 2) | Growth Rate (U2OS; 12 h, replicate number 1) | Growth Rate (U2OS; 12 h, replicate number 2) | Growth Rate (U2OS; 18 h, replicate number 1) | Growth Rate (U2OS; 24 h, replicate number 1) | Growth Rate (U2OS; 24 h, replicate number 2) | further results
Cl.NC(=O)c1ccccc1Nc1nc(-c2ccc(N3CCOCC3)cc2)cc2ncccc12 | -1 | -0.65 | -0.55 | -0.4 | -0.36 | -0.2 | -0.24 | -0.11 | -0.47 | 0.05 | 0.13 | -0.14 | 0.07 | -0.07 | 0.39 | 0.57 | 0.32 | 0.62 | 0.66 | 0.24 | Growth Rate (Fibroblast; 6 h, replicate number 1): -0.14; Growth Rate (Fibroblast; 12 h, replicate number 2): -0.21; Growth Rate (U2OS; 0 h, replicate number 2): 0.86; Growth Rate (U2OS; 6 h, replicate number 1): 0.76; Growth Rate (U2OS; 18 h, replicate number 2): 0.25
COC1(C#Cc2ccc(Cl)c(-c3ncc4c(n3)-c3sc(NC(C)=O)nc3CC4)c2)CCN(C)CC1 | -1 | -0.41 | -0.37 | -0.29 | -0.19 | -0.17 | -0.1 | -0.05 | -0.27 | 0.03 | -0.03 | -0.14 | -0.11 | -0.15 | 0.62 | 0.91 | 0.66 | 0.64 | 0.78 | 0.62 | Growth Rate (HEK-293T; 24 h, replicate number 2): 0.05; Growth Rate (Fibroblast; 6 h, replicate number 1): 0.02; Growth Rate (Fibroblast; 12 h, replicate number 2): -0.12; Growth Rate (U2OS; 0 h, replicate number 1): 0.64; Growth Rate (U2OS; 0 h, replicate number 2): 0.98; Growth Rate (U2OS; 6 h, replicate number 1): 0.79
Cc1cc(-c2cc3ncccc3c(OC[C@H]3CCCNC3)n2)ccc1N(C)C.O=C(O)C(F)(F)F | -1 | -0.57 | -0.53 | -0.47 | -0.44 | -0.34 | -0.28 | -0.25 |  |  |  |  | 0.79 | 0.85 | 0.47 | 0.77 | 0.26 | 0.28 | 0.47 | 0.16 | Growth Rate (HEK-293T; 24 h, replicate number 2): -0.18; Growth Rate (Fibroblast; 0 h, replicate number 1): -0.49; Growth Rate (Fibroblast; 0 h, replicate number 2): -0.85; Growth Rate (U2OS; 18 h, replicate number 2): 0.19
CC(C)NC(=O)[C@H]1CCC[C@H]1Nc1nc(Nc2ccc(CN(C)C)cc2)ncc1Br.Cl | -1 | -0.59 | -0.5 | -0.3 | -0.36 | -0.04 | -0.19 | 0.2 | -0.82 | -0.42 | -0.37 | -0.51 | -0.38 | -0.46 | 0.17 | -0.31 | 0.15 | 0.3 | 0.32 | 0.2 | Growth Rate (HEK-293T; 24 h, replicate number 2): 0.01; Growth Rate (Fibroblast; 6 h, replicate number 1): -0.53; Growth Rate (Fibroblast; 12 h, replicate number 2): -0.59; Growth Rate (U2OS; 0 h, replicate number 1): -0.38; Growth Rate (U2OS; 0 h, replicate number 2): 0.74; Growth Rate (U2OS; 6 h, replicate number 1): 0.07; Growth Rate (U2OS; 18 h, replicate number 2): 0.24
COc1cc(C(=O)NC2CCN(C)CC2)ccc1Nc1ncc(C(F)(F)F)c(NCc2ccc(C)cc2N(C)S(C)(=O)=O)n1.O=CO.O=CO | -1 | -0.77 | -0.51 | -0.63 | -0.48 | -0.54 | -0.33 | -0.45 | -0.42 | -0.37 | -0.52 | -0.55 | -0.58 | -0.54 | -0.57 | 0.11 | -0.43 | -0.12 | -0.27 | -0.53 | Growth Rate (HEK-293T; 24 h, replicate number 2): -0.34; Growth Rate (Fibroblast; 6 h, replicate number 1): -0.43; Growth Rate (Fibroblast; 12 h, replicate number 2): -0.43; Growth Rate (U2OS; 0 h, replicate number 1): -0.98; Growth Rate (U2OS; 0 h, replicate number 2): -0.24; Growth Rate (U2OS; 6 h, replicate number 1): 0.97; Growth Rate (U2OS; 18 h, replicate number 2): -0.46
CC(C)NC(=O)[C@H]1CCC[C@H]1Nc1nc(Nc2ccc(C(=O)N(C)C3CCN(C)CC3)cc2)ncc1Cl | -1 |  |  | 0.62 and 0.41 |  | 0.71 and 0.79 | 0.56 | 0.85 | -0.29 | 0.11 and 0.25 | 0.31 and 0.66 | 0.24 and 0.59 | 0.54 | 0.47 | 0.48 |  | 0.53 and 0.52 | 0.54 and 0.76 | 0.63 | 0.61 and 0.9 | Growth Rate (HEK-293T; 24 h, replicate number 2): 0.69 and 0.88; Growth Rate (Fibroblast; 0 h, replicate number 1): -1; Growth Rate (U2OS; 0 h, replicate number 1): 0.59; Growth Rate (U2OS; 0 h, replicate number 2): 0.92; Growth Rate (U2OS; 18 h, replicate number 2): 0.6 and 0.8
CCNc1ccc(-c2nn(-c3ccccc3C)c3c2C(C)Cc2nc(NC(=O)OC)sc2-3)cn1.O=C(O)C(F)(F)F (configuration not stated) | -0.93 | -0.42 | 0.14 | -0.41 | -0.12 | -0.23 | 0.03 | -0.1 | -0.7 | -0.55 | -0.28 | -0.19 | -0.11 | -0.06 | 0.13 | 0.39 | 0.24 | 0.27 | -0.06 | 0.07 | Growth Rate (HEK-293T; 24 h, replicate number 2): -0.01; Growth Rate (Fibroblast; 6 h, replicate number 1): -0.81; Growth Rate (Fibroblast; 12 h, replicate number 2): -0.37; Growth Rate (U2OS; 0 h, replicate number 1): -0.28; Growth Rate (U2OS; 6 h, replicate number 1): 0.5; Growth Rate (U2OS; 18 h, replicate number 2): 0.25

— ChEMBL document CHEMBL5303304, “EUbOPEN Chemogenomics Library - IncuCyte” (2023)
